Results from patent US7951772B2, “Tumor-activated prodrug compounds and treatment” (La Region Wallonne, priority 1994, dated 2011).
Converted amounts (≈) assume the structure as drawn. “And” between values parts separate entries of the source, which are not always exact repeats. Identical values can stand only once. Square brackets hold non-standard residues; d marks the D form. Peptide text beside a SMILES is read from it. * marks the point of attachment. X1 = COc1cccc2c1C(=O)c1c(O)c3c(c(O)c1C2=O)CC(O)(C(=O)CO)CC3OC1CC(N*)C(O)C(C)O1; pGlu = O=C1CC[CH](C(=O)O)N1

Columns and labels:
[1] = test system: conditioned medium from MCF7/6 mammary carcinoma cells
[2] = test system: MCF7/6 human mammary carcinoma cells; experiment: Cytotoxicity with respect to MCF7/6 tumor cells (72 h, Bradford protein); conditions: Homo sapiens, MCF7/6, 72 h, read-out: IC50 (72 h)
Protocol: (§1) After 72 hours, the cells are incubated for 48 hours in the absence of anthracycline, and the cytotoxicity is determined by measuring the cellular proteins by Bradford's technique. […] The experimental points are adjusted to a sigmoid curve which enables the point of inflection, corresponding to the dose at which half of the cells survive (IC50), to be calculated.
(§2) After 72 hours, the cells are incubated for 48 hours in the absence of the anthracycline, and the cytotoxicity is determined by measuring the cellular proteins by Bradford's technique. […] The experimental points are adjusted to a sigmoid curve which enables the point of inflection, corresponding to the dose at which half of the cells survive (IC50), to be calculated.

MRC5 fibroblast cells [3] = experiment: Cytotoxicity with respect to MRC5 normal cells (72 h, Bradford protein); conditions: Homo sapiens, MRC5, 72 h, read-out: IC50 (72 h)
Protocol: as §1, §2

[4] = test system: MCF7/6 human mammary carcinoma cells; experiment: Accumulation in MCF7/6 tumor cells (HPLC of cell extracts); conditions: MCF7/6 cells, 10 μg eq. DOX/ml
Protocol: After various times, the accumulation of the prodrugs and of their fluorescent metabolites were determined by HPLC after extraction of the products at basic pH according to a method developed in the laboratory. Accumulations, expressed in μg/mg of cellular proteins, were compared with those of DNR and of DOX as well as with those of L-Leu-DNR and L-Leu-DOX. The metabolites were identified by determining the retention times of reference products synthesized in the laboratory.
(§3) After various times, the accumulation of the prodrugs and of their fluorescent metabolites was determined by HPLC after extraction of the products at basic pH according to a method developed in the laboratory. Accumulations, expressed in μg/mg of cellular proteins, were compared with those of DOX and of L-Leu-DOX. The metabolites were identified by determining the retention times of reference products synthesized in the laboratory.

MRC5 fibroblast cells [5] = experiment: Accumulation in MRC5 normal fibroblast cells (HPLC of cell extracts)
Protocol: At various times, the accumulation of the prodrugs and of their fluorescent metabolites was determined by HPLC after extraction of the products at basic pH according to a method developed in the laboratory. Accumulations, expressed in μg/mg of cellular proteins, were compared with those of DNR and of L-Leu-DNR. The metabolites were identified by determining the retention times of reference products synthesized in the laboratory.
as §3

[6] = test system: conditioned medium from MCF7/6 mammary carcinoma cells; experiment: Degradation in conditioned medium from MCF7/6 mammary carcinoma cells (HPLC); conditions: β-Ala-Leu-Ala-Leu-DOX incubated at 37 C in MCF7/6 conditioned medium concentrated 20 times, share of each species

With `COc1cccc2c1C(=O)c1c(O)c3c(c(O)c1C2=O)CC(O)(C(C)=O)CC3OC1CC(NC(=O)C(CC(C)C)NC(=O)C(C)NC(=O)C(CC(C)C)NC(=O)C(C)NC(=O)C(N)CC(C)C)C(O)C(C)O1` [D-Leu-L-Ala-L-Leu-L-Ala-L-Leu-DNR] the “Hydrolysis, MCF-7/6 Conditioned Medium” value [1] was “+”.

For `COc1cccc2c1C(=O)c1c(O)c3c(c(O)c1C2=O)C[C@@](O)(C(=O)CO)C[C@@H]3O[C@H]1C[C@H](N)[C@H](O)[C@H](C)O1` [DOX, doxorubicin], the IC50 [2] was 0.0025 µg/mL (≈ 0.0046 µM), the IC50 (MRC5 fibroblast cells [3]) was 0.018 µg/mL (≈ 0.0331 µM) and the “Accumulation after 6 h, DOX” value [4] was 6.9 μg/mg cellular prot. and 6.90 μg/mg cellular prot. For the same molecule, the “Accumulation after 6 h, DOX” value (MRC5 fibroblast cells [5]; MRC5 cells, 10 μg eq. DOX/ml) was 11.20 μg/mg cellular prot and the “intracellular levels of the active therapeutic agent in normal cells compared with tumor cells” value (MRC5 fibroblast cells [5]; MRC5 versus MCF7/6, 6 h incubation) was “twice as high”.

For `COc1cccc2c1C(=O)c1c(O)c3c(c(O)c1C2=O)CC(O)(C(C)=O)CC3OC1CC(NC(=O)C(CC(C)C)NC(=O)CNC(=O)C(CC(C)C)NC(=O)CN)C(O)C(C)O1` [Gly-L-Leu-Gly-L-Leu-DNR], the “Hydrolysis, MCF-7/6 Conditioned Medium” value [1] was “+”.

In the case of `COc1cccc2c1C(=O)c1c(O)c3c(c(O)c1C2=O)CC(O)(C(=O)CO)CC3OC1CC(NC(=O)C(CC(C)C)NC(=O)C(C)N)C(O)C(C)O1` [L-Ala-L-Leu-DOX], the “Starting material or Metabolite, After 2 hours” value [6] is reported as under 1% and the “Starting material or Metabolite, Time 0” value [6] is reported as 0%.

With `COc1cccc2c1C(=O)c1c(O)c3c(c(O)c1C2=O)CC(O)(C(C)=O)CC3OC1CC(NC(=O)C(CC(C)C)NC(=O)C(C)NC(=O)C(CC(C)C)NC(=O)C(C)N)C(O)C(C)O1` [L-Ala-L-Leu-L-Ala-L-Leu-DNR] the “Hydrolysis, MCF-7/6 Conditioned Medium” value [1] was “+”.

`COc1cccc2c1C(=O)c1c(O)c3c(c(O)c1C2=O)C[C@@](O)(C(=O)CO)C[C@@H]3O[C@H]1C[C@H](NC(=O)[C@H](CC(C)C)NC(=O)[C@H](C)NC(=O)[C@@H](N)CC(C)C)[C@H](O)[C@H](C)O1` [L-Leu-L-Ala-L-Leu-DOX] was tested, and the “Starting material or Metabolite, After 2 hours” value [6] was under 1% and the “Starting material or Metabolite, Time 0” value [6] was 0%.

`COc1cccc2c1C(=O)c1c(O)c3c(c(O)c1C2=O)CC(O)(C(C)=O)CC3OC1CC(NC(=O)C(CC(C)C)NC(=O)C(C)NC(=O)C(CC(C)C)NC(=O)C(C)NC(=O)CCC(=O)O)C(O)C(C)O1` [Succ-L-Ala-L-Leu-L-Ala-L-Leu-DNR] was tested, and the “Hydrolysis, MCF-7/6 Conditioned Medium” value [1] was “−”.

For `COc1cccc2c1C(=O)c1c(O)c3c(c(O)c1C2=O)CC(O)(C(=O)CO)CC3OC1CC(NC(=O)C(CC(C)C)NC(=O)C(C)NC(=O)C(CC(C)C)NC(=O)C(C)NC(=O)C2CCC(=O)N2)C(O)C(C)O1` [pGlu-L-Ala-L-Leu-L-Ala-L-Leu-DOX] ([pGlu]ALAL-X1; configuration not given here), the “Hydrolysis, MCF-7/6 Conditioned Medium” value [1] was “−”.

For β-Ala-L-Leu-L-Ala-L-Leu-COU, the “Hydrolysis, MCF-7/6 Conditioned Medium” value [1] was “+”.
